These results are taken from patent publication US9359311B2, “Substituted aromatic oligomers” (NEUROSCIOS GMBH, priority 2011, dated 2016).

Experiment [1] concerns the target T1, Human Aβ38, Aβ40 and Aβ42 (Homo sapiens, UniProt P05067).
T1 construct: from tissue; host or cells: CSF and left brain hemisphere (SDS fraction) of transgenic hAPPSL mice
Briefly: Human Aβ38, Aβ40 and Aβ42 in SDS brain homogenate fraction of hAPPSL Tg mice after 90 days treatment. It is filed as in vivo, mouse. The note with it: twice daily i.p., p-FTAA 1 or 10 mg/kg/day, P9707_003 10 mg/kg/day. On the procedure: Vehicle: Phosphate Buffered Saline (PBS; 6.7 mM PO4, 155 mM NaCl, pH=7.3-7.5) (BioWhittaker PBS from Lonza).
Test item (T.I.): p-FTAA and P9707_003 diluted in vehicle from stock solution in deionized water (10 mg/ml).
Tg hAPPSL: Transgenic hAPPSL mice over-expressing hAPP(751) under the control of the murine Thy-1 promoter with a C57BL/6xDBA background.
Human Aβ38, Aβ40 and Aβ42 were determined in homogenates of the left brain hemispheres and in CSF samples of all Tg animals by an immunosorbent assay from Mesoscale Discovery
48 hAPP Tg mice plus 4 reserves allocated to 4 different treatment groups were treated with either vehicle only (control), p-FTAA or P9707_003. As an additional control, 12 nTg littermates of the hAPPSL mice (plus 1 reserve) were treated with vehicle only. Starting at 6.5 months of age, female hAPPSL mice were treated with vehicle only, p-FTAA (dosage: 1 or 10 mg/kg/day) or P9707_003 (dosage: 10 mg/kg/day) for 90 days. […]
In the brain homogenate SDS fraction and in CSF of each Tg mouse, human Aβ38, Aβ40 and Aβ42 levels were measured with a Aβ-kit from Mesoscale Discovery. Aβ levels were evaluated in comparison to a peptide standard as pg/mg brain (wet weight) or pg/ml CSF.
Descriptive statistical analysis was performed on all evaluated parameters. […] Group differences between all Tg groups were calculated by a parametric ANOVA followed by a Bonferroni post test.

The target of experiment [2] is T2, biotinylated Aβ1-42 (Homo sapiens, UniProt P05067).
T2 construct: To assure monomerisation of biotinylated Aβ1-42 (Anaspec #23523-0.5) the peptide was thoroughly monomerised; purchased Anaspec 23523-0.5
Briefly: Inhibition of Abeta oligomerisation (biotinylated Aβ1-42, neutravidin plate, streptavidin-HRP). The format is biochemical. Conditions: inhibition of Aβ1-42 aggregation, approximately 12 nM Aβ1-42, PBS pH 7.4, 2% DMSO, 30 min RT.

Molecules are shown by their SMILES. pIC50: −log10 of the molar value. “Also recorded” adds a separate entry of the source.

T1 sequence (P05067 672-713 limits assumed): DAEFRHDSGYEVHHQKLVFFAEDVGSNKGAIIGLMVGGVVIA
T2 sequence (P05067 672-713 limits assumed): as above

As usually defined, the pIC50 is the IC50 on a negative log10 scale, so that one unit is a factor of ten. Lower therefore signals a high IC50. With `O=C(O)Cc1ccsc1-c1ccc(-c2sc(-c3ccc(-c4cc(CC(=O)O)c(-c5ccc(-c6sccc6CC(=O)O)s5)s4)s3)cc2CC(=O)O)s1` [Example 1, 2-(2-{5-[3-(Carboxymethyl)-5-{5-[4-(carboxymethyl)-5-{5-[3-(carboxymethyl)thiophen-2-yl]thiophen-2-yl}thiophen-2-yl]thiophen-2-yl}thiophen-2-yl]thiophen-2-yl}thiophen-3-yl)acetic acid], the “aggregated Aβ38, Aβ40 and Aβ42 in SDS fraction of brain homogenate” value in experiment [1] is “significant decrease; also recorded: reduced”. Also, the negative logarithm of the IC50 (pIC50) in experiment [2] was 6.10.
